Data set [1] has as its system K562. The data set can be described thus: Inhibition of AMPK in human K562 cells assessed as p-ACC (Ser79) level at 5 uM in glucose free medium and in presence of 2-Deoxy-D-glucose measured after 3 hrs by ELISA relative to control. It is filed as cell-based.
For data set [2], the system named is K562. The data set can be described thus: Cytotoxicity against human K562 cells assessed as reduction in cell viability incubated for 72 hrs by MTS assay. The data set is classed as cell-based. The settings on record: K562, 72 h.
Data set [3] concerns K562. The data set can be described thus: Cytotoxicity against human K562 cells assessed as reduction in cell viability incubated for 24 hrs by cell-titer glo assay. It is filed as cell-based. Particulars: K562, 24 h.
Data set [4] is described as follows: Cytotoxicity against human K562 cells assessed as reduction in cell viability at 50 uM incubated for 24 hrs by celltox-green assay relative to control. It is filed as cell-based. The settings on record: read-out: INH.
In data set [5] the test system is K562. The data set can be described thus: Cytotoxicity against human K562 cells assessed as reduction in cell viability incubated for 48 hrs by celltox-green assay. It is filed as cell-based. The settings on record: K562, 48 h.
The nature of data set [6]: Cytotoxicity against human K562 cells assessed as reduction in cell viability at 50 uM incubated for 24 hrs by cell-titer glo assay relative to control. It is filed as cell-based. The settings on record: read-out: INH.
Data set [7] concerns K562. The data set can be described thus: Cytotoxicity against human K562 cells assessed as reduction in cell viability incubated for 24 hrs by celltox-green assay. It is filed as cell-based. The settings on record: K562, 24 h.
Data set [8] deals with 5'-AMP-activated protein kinase catalytic subunit alpha-2 (Homo sapiens) (UniProt P54646). The data set can be described thus: Inhibition of recombinant human His6-tagged AMPK alpha2 at 10 uM using ULight CRBtide as substrate incubated for 1 hr followed by substrate addition and measured after 1 hr by TR-FRET assay relative to control. The settings on record: time 2.0 hrs.

The nature of data set [9]: Cytotoxicity against human K562 cells assessed as reduction in cell viability at 1.56 uM incubated for 72 hrs by MTS assay relative to control. The data set is classed as cell-based. The settings on record: read-out: INH. (In general: Tetrazolium dyes change colour on reduction, which living cells bring about.)
The nature of data set [10]: Cytotoxicity against human K562 cells assessed as reduction in cell viability at 50 uM incubated for 72 hrs by MTS assay relative to control. It is filed as cell-based. The settings on record: read-out: INH.
The nature of data set [11]: Cytotoxicity against human K562 cells assessed as reduction in cell viability at 50 uM incubated for 48 hrs by celltox-green assay relative to control. It is filed as cell-based. The settings on record: read-out: INH.
Data set [12] addresses 5'-AMP-activated protein kinase catalytic subunit alpha-1 (Homo sapiens) (UniProt Q13131). Nature of the data set: Inhibition of recombinant human His6-tagged AMPK alpha1 at 20 uM using ULight CRBtide as substrate incubated for 1 hr followed by substrate addition and measured after 1 hr by TR-FRET assay relative to control. The settings on record: time 2.0 hrs. (TR-FRET usually uses a lanthanide donor and a delayed reading to cut background.)

Data set [13] is described as follows: Inhibition of recombinant human GST-tagged AMPK alpha1/beta1/gamma1 expressed in African green monkey COS7 cells assessed as reduction in AMPK beta 1 S108 phosphorylation incubated for 10 mins by [gamma 32-P]-ATP based radiometric scintillation counting analysis. The data set is classed as cell-based.
Data set [14] concerns K562. The data set can be described thus: Inhibition of AMPK in human K562 cells assessed as p-ACC (Ser79) level at 3.125 to […] in glucose free medium and in presence of 2-Deoxy-D-glucose measured after 3 hrs by ELISA. It is filed as cell-based. Particulars: dose 3.125-12.5 µM. (In general: An ELISA detects its analyte on a solid surface through an enzyme-linked reagent.)

Data set [15] has as its target 5'-AMP-activated protein kinase catalytic subunit alpha-1 (Homo sapiens) (UniProt Q13131). Nature of the data set: Inhibition of wild-type human partial length AMPK alpha1 (M1 to E306 residues) expressed in bacterial expression system at 100 nM by Kinomescan method relative to control.
Data set [16] concerns the target 5'-AMP-activated protein kinase catalytic subunit alpha-2 (Homo sapiens) (UniProt P54646). The data set can be described thus: Inhibition of wild-type human partial length AMPK alpha2 (M1 to E306 residues) expressed in bacterial expression system at 100 nM by Kinomescan method relative to control.
Data set [17] concerns the target Tyrosine-protein kinase BTK (Homo sapiens) (UniProt Q06187). The data set can be described thus: Inhibition of wild-type human full length BTK (M1 to S659 residues) expressed in mammalian expression system at 100 nM by Kinomescan method relative to control.
In data set [18] the target is Macrophage colony-stimulating factor 1 receptor (Homo sapiens) (UniProt P07333). Nature of the data set: Inhibition of wild-type human partial length CSF1R (I564 to S939 residues) expressed in bacterial expression system at 100 nM by Kinomescan method relative to control.
The target is the same in data set [19]. The data set can be described thus: Inhibition of wild-type human partial length autoinhibited CSF1R (Y538 to S939 residues) expressed in mammalian expression system at 100 nM by Kinomescan method relative to control.
For data set [20], the target named is Tyrosine-protein kinase JAK1 (Homo sapiens) (UniProt P23458). Nature of the data set: Inhibition of wild-type human partial length JAK1 JH2 pseudokinase domain (R537 to D855 residues) expressed in mammalian expression system at 100 nM by Kinomescan method relative to control.
For data set [21], the target named is Mast/stem cell growth factor receptor Kit (Homo sapiens) (UniProt P10721). Nature of the data set: Inhibition of wild-type human partial length autoinhibited KIT (Y545 to D952 residues) expressed in mammalian expression system at 100 nM by Kinomescan method relative to control.
The target of data set [22] is Vascular endothelial growth factor receptor 2 (Homo sapiens) (UniProt P35968). Particulars: dose 100.0 nM.
Description: Inhibition of wild-type human partial length VEGFR2 (R787 to P1253 residues) expressed in mammalian expression system at 100 nM by Kinomescan method relative to control
In data set [23] the test system is K562. Nature of the data set: Inhibition of AMPK in human K562 cells assessed as p-ACC (Ser79) level at 50 uM in glucose free medium and in presence of 2-Deoxy-D-glucose measured after 3 hrs by ELISA. The data set is classed as cell-based.
Data set [24] concerns the target Vascular endothelial growth factor receptor 1 (Homo sapiens) (UniProt P17948). Nature of the data set: Inhibition of wild-type human partial length FLT1 (R781 to F1239 residues) expressed in bacterial expression system at 100 nM by Kinomescan method relative to control.

Calls of active or inactive are those of the source. The rule behind the calls is not given here.

Chain of Macrophage colony-stimulating factor 1 receptor (Homo sapiens) (P07333 whole entry, the tested form may be a part): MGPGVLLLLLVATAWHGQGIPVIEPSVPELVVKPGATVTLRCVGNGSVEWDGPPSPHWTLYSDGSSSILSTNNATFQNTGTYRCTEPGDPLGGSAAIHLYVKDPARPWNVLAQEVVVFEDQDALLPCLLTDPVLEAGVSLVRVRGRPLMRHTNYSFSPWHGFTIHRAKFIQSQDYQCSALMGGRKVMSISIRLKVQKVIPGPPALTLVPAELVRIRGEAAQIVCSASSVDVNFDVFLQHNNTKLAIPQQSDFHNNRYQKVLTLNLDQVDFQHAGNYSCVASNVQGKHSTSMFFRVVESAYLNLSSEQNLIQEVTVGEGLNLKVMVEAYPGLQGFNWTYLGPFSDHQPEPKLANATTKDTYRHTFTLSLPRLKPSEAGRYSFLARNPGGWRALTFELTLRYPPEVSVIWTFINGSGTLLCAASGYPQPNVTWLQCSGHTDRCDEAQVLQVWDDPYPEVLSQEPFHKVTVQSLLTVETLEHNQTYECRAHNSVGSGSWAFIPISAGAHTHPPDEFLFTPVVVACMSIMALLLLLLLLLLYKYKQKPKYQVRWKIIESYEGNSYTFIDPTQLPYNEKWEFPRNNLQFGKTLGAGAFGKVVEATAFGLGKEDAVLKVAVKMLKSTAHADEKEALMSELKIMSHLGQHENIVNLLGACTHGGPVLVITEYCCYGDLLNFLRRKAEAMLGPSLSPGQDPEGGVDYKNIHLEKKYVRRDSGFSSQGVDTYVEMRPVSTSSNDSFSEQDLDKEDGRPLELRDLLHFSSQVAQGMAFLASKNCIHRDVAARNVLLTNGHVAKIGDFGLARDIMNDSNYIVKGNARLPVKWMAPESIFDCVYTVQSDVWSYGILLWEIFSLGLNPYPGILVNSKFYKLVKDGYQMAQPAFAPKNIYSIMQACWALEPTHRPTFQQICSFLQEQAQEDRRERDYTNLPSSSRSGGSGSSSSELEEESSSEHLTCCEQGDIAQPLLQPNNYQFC
Chain of 5'-AMP-activated protein kinase catalytic subunit alpha-1 (Homo sapiens) (Q13131 whole entry, looked up, the tested form may be a part): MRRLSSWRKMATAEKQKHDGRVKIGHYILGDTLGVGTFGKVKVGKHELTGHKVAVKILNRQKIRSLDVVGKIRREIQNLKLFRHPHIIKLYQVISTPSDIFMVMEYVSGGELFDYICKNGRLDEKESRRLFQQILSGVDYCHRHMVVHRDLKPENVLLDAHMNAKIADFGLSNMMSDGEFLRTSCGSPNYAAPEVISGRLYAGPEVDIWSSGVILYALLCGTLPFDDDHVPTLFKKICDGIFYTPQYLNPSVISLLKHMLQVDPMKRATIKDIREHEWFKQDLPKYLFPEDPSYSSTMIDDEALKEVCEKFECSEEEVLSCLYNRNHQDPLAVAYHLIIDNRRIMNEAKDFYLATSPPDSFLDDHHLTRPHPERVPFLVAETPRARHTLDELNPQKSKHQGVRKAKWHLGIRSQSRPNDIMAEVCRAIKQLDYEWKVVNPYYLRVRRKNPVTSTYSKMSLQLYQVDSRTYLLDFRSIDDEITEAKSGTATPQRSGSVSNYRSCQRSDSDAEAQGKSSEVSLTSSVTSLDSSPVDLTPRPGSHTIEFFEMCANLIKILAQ
Chain of 5'-AMP-activated protein kinase catalytic subunit alpha-2 (Homo sapiens) (P54646 whole entry, looked up, the tested form may be a part): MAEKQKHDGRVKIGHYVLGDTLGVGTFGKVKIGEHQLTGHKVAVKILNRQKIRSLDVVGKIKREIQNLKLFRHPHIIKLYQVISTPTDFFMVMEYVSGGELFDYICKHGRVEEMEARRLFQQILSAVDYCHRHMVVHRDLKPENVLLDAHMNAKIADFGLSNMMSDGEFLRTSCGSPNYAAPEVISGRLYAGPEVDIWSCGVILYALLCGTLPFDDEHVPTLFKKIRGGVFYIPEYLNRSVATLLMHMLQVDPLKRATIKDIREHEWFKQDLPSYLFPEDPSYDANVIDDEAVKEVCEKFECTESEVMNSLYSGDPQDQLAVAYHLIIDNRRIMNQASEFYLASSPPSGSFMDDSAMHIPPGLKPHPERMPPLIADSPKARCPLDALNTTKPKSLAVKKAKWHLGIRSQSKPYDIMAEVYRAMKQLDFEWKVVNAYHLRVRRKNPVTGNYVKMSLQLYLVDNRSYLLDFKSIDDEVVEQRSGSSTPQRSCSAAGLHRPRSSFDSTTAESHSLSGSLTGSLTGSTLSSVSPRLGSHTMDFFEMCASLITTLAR
Chain of Vascular endothelial growth factor receptor 2 (Homo sapiens) (P35968 whole entry): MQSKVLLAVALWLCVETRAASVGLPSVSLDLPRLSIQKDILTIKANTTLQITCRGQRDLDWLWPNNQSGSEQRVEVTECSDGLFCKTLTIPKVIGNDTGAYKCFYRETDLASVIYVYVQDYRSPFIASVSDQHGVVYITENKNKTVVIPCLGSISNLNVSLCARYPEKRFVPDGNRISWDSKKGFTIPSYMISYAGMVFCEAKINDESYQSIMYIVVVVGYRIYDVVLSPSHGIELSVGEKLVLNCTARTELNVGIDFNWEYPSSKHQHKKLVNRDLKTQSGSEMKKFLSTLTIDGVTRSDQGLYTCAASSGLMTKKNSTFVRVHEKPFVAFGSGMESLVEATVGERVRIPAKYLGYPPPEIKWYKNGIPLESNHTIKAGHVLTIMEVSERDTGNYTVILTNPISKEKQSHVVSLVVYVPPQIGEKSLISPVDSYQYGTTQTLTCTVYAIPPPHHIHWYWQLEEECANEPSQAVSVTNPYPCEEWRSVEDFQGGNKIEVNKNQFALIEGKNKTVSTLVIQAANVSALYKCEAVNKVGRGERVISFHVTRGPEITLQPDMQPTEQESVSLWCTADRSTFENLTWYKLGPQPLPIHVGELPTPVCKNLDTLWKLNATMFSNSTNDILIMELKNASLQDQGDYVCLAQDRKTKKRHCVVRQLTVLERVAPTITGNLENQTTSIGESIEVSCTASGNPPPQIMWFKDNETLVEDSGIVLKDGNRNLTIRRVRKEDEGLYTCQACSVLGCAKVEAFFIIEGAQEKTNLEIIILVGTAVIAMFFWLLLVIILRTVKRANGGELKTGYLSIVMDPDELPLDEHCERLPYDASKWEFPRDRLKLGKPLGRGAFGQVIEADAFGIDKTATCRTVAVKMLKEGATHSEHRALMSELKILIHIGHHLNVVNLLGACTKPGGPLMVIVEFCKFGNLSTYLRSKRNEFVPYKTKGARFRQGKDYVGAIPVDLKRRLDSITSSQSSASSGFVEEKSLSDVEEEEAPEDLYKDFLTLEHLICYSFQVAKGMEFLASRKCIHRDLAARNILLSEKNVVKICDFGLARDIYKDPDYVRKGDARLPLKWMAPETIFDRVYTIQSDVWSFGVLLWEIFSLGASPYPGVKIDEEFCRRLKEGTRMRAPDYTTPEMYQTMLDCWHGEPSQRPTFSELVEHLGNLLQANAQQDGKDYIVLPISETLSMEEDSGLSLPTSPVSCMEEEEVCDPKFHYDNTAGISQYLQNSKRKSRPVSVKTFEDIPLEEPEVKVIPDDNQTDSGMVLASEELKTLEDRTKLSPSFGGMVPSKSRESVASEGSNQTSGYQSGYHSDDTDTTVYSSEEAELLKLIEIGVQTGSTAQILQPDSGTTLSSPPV
Chain of Mast/stem cell growth factor receptor Kit (Homo sapiens) (P10721 whole entry, the tested form may be a part): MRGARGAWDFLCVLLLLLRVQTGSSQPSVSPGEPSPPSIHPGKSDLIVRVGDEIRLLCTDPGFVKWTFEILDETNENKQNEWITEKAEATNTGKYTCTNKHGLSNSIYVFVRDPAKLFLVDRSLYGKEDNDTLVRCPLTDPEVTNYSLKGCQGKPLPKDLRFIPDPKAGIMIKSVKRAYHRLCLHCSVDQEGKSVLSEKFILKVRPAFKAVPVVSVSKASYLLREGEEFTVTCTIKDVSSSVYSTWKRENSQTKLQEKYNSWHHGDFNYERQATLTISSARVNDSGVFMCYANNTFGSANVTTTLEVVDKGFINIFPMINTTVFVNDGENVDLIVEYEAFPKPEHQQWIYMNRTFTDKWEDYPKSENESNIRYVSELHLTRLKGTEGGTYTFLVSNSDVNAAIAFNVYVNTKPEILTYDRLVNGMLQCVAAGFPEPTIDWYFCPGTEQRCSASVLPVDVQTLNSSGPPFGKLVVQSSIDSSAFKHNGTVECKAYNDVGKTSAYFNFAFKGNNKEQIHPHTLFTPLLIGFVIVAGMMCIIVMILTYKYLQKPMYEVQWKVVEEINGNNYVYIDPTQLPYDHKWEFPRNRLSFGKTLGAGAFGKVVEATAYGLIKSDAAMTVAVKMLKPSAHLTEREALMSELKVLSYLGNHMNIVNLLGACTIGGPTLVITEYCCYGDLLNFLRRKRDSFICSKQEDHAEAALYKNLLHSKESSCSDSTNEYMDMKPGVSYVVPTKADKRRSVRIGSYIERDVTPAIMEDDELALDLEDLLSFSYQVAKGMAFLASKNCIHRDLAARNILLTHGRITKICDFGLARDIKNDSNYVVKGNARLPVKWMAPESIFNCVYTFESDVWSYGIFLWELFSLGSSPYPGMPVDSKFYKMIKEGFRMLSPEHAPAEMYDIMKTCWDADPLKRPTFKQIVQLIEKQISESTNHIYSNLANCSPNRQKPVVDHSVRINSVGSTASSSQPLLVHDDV
Chain of Tyrosine-protein kinase BTK (Homo sapiens) (Q06187 whole entry, the tested form may be a part): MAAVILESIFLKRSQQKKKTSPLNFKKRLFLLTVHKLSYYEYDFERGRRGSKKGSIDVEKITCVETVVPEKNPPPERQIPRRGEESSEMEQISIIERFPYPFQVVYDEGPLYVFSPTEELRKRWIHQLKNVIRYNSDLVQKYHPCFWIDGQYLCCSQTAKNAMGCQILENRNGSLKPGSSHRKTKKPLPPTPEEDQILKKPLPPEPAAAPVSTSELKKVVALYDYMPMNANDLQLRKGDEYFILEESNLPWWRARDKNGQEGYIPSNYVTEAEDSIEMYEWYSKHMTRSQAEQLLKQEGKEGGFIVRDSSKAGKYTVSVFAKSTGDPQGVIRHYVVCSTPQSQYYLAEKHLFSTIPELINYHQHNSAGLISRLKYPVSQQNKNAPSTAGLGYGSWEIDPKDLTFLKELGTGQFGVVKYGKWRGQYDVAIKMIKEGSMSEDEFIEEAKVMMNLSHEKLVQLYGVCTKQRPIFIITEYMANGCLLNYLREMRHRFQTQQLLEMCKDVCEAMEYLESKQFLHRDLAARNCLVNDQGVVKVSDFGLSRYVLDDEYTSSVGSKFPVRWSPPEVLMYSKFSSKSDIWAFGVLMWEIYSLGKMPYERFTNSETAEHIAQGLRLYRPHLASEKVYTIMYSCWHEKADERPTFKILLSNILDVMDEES

One may read the inhibition as the percentage by which the read-out fell short of the control. The EC50 is the midpoint of the concentration-response curve. `CCN(CC)CCNC(=O)c1c(C)[nH]c(/C=C2\C(=O)Nc3ccc(CCC#N)cc32)c1C`: the inhibition with K562 [1] is 34.1%. The EC50 with K562 [2] was 14.8 µM; in the data set with K562 [3], 17.8 µM; in the data set on K562 [5], 13.6 µM. The cytotoxicity at 24 h, 50 µM in [4] was 64%.
For `Cc1[nH]c(/C=C2\C(=O)Nc3ccc(F)cc32)c(C)c1C(=O)NCCN(C)C`, in the data set on K562 [2], the EC50 came to 12.6 µM. The cytotoxicity at 24 h, 50 µM in data set [6] amounted to 98%; in [4] it was 70%.
Consider `CCNCCNC(=O)c1c(C)[nH]c(/C=C2\C(=O)Nc3ccc(F)cc32)c1C`, for which the EC50 was found to be 13.6 µM in the data set on K562 [2], 15.5 µM in the data set with K562 [3], 12.9 µM with K562 [7] and 11.9 µM with K562 [5].
On to `CCN(CC)CCNC(=O)c1c(C)[nH]c(/C=C2\C(=O)Nc3cc(C)ccc32)c1C`, for which, in data set [8], the inhibition is 88%.
With `CCN(CC)CCNC(=O)c1c(C)[nH]c(/C=C2\C(=O)Nc3cc(Cl)ccc32)c1C`, the cytotoxicity at 72 h, 1.56 µM in data set [9] amounted to 65%. Also, the EC50 in the data set with K562 [3] is 3.83 µM; with K562 [7], 5.24 µM; with K562 [5], 4.18 µM.
As for `CCN(CC)CCNC(=O)c1c(C)[nH]c(/C=C2\C(=O)Nc3ccc(CCNC(C)=O)cc32)c1C`, the cytotoxicity at 72 h, 50 µM in data set [10] was 64%. For the same compound, the cytotoxicity at 24 h, 50 µM was determined as 98% in data set [6] and 5% in [4]. The cytotoxicity at 48 h, 50 µM in data set [11] was determined as 42%.
Turning to `CCN(CC)CCNC(=O)c1c(C)[nH]c(/C=C2\C(=O)Nc3cc(C(C)C)ccc32)c1C`, the inhibition in data set [8] was found to be 69%.
Consider `CCCNC(=O)c1c(C)[nH]c(/C=C2\C(=O)Nc3ccc(F)cc32)c1C`, for which the inhibition in [12] turned out to be 30%; in [8], 48%.
As for `CCN(CC)CCNC(=O)c1c(C)[nH]c(/C=C2\C(=O)N(C)c3ccc(F)cc32)c1C`, the inhibition was found to be 40% in [12] and 17% in [8]. The concentration for a half-maximal effect (EC50) with K562 [2] came out at 6.79 µM; in the data set on K562 [3] it was 11.8 µM; in the data set with K562 [7] it was 12.1 µM.
As to `CCN(CC)CCCNC(=O)c1c(C)[nH]c(/C=C2\C(=O)Nc3ccc(F)cc32)c1C`, the EC50 was found to be 13.5 µM in the data set with K562 [2] and 18 µM in the data set with K562 [3]. Also, the cytotoxicity at 24 h, 50 µM in [4] was 63%.
Broadly, the IC50 is the concentration that gives 50% inhibition. In the case of `CNC(=O)c1ccccc1Oc1nc(Nc2cc(OC)c(OC)c(OC)c2)ncc1Br`, the IC50 in data set [13] was 0.4 µM.
As for `CCc1ccc2c(c1)NC(=O)/C2=C\c1[nH]c(C)c(C(=O)NCCN(CC)CC)c1C`, the inhibition came to 70% in data set [12] and 90% in [8].
As to `CCN(CC)CCNC(=O)c1c(C)[nH]c(/C=C2\C(=O)Nc3ccc(CCN=[N+]=[N-])cc32)c1C`, the EC50 was 3.83 µM in the data set on K562 [2], 4.86 µM in the data set with K562 [3] and 4.81 µM in the data set with K562 [5]. For the same compound, the cytotoxicity at 24 h, 50 µM in [4] was 90%.
Turning to `Cc1[nH]c(/C=C2\C(=O)Nc3ccc(F)cc32)c(C)c1C(=O)O`, the inhibition in [12] stood at 78%; in data set [8], 85%.
With `CCN(CC)CCNC(=O)c1c(C)[nH]c(/C=C2\C(=O)Nc3ccc(CCC(N)=O)cc32)c1C`, the inhibition in the data set with K562 [1] was 29.2%; in data set [15] it was 29%; in data set [16], 64%; in data set [17], 0%; in data set [18] it was 18%; in data set [19] it was 14%. In addition, the inhibition in data set [20] is 41%; in [21] it was 0%; in data set [22], 19%. In addition, the inhibition entry with K562 [14] was “Active”.
`CCN(CC)CCNC(=O)c1c(C)[nH]c(/C=C2\C(=O)Nc3ccc(C#N)cc32)c1C`: the cytotoxicity at 72 h, 50 µM in data set [10] was 98%. Also, the EC50 with K562 [3] came to 19.9 µM; with K562 [5], 13.6 µM. Further, in [4], the cytotoxicity at 24 h, 50 µM came out at 75%.
Regarding `CCN(CC)CCNC(=O)c1c(C)[nH]c(/C=C2\C(=O)Nc3cc(Br)ccc32)c1C`, the inhibition in data set [12] came out at 89%.
As to `CCN(CC)CCNC(=O)c1c(C)[nH]c(/C=C2\C(=O)Nc3cc(F)ccc32)c1C`, the EC50 came to 2.85 µM in the data set on K562 [2] and 7.15 µM in the data set with K562 [5]. Further, the cytotoxicity at 24 h, 50 µM in [6] amounted to 98%; in [4], 61%.
As to `CCN(CC)CCNC(=O)c1c(C)[nH]c(/C=C2\C(=O)Nc3ccc(CCO)cc32)c1C`, the inhibition turned out to be 23.7% with K562 [1]; 49% in data set [15]; 35% in data set [16]; 24% in [18]; 42% in data set [24]; 54% in data set [20]. Further, the inhibition was 28% in data set [21] and 55% in [22]. The inhibition result in the data set with K562 [23] was “Active”.

Source of the values: ChEMBL document CHEMBL4765298, “Substituted oxindol-3-ylidenes as AMP-activated protein kinase (AMPK) inhibitors” (Eur J Med Chem, 2020).
